The values that follow come from patent US7858635B2 (priority 2005, dated 2010).

Assay [1] addresses T1, M4 muscarinic receptor (Homo sapiens, UniProt P08173).
T1 construct: expressed in transfected cells; host or cells: CHO cells (M4-CHO, under puromycin, zeocin and blasticidin selection)
T1 sequence (P08173 1-479): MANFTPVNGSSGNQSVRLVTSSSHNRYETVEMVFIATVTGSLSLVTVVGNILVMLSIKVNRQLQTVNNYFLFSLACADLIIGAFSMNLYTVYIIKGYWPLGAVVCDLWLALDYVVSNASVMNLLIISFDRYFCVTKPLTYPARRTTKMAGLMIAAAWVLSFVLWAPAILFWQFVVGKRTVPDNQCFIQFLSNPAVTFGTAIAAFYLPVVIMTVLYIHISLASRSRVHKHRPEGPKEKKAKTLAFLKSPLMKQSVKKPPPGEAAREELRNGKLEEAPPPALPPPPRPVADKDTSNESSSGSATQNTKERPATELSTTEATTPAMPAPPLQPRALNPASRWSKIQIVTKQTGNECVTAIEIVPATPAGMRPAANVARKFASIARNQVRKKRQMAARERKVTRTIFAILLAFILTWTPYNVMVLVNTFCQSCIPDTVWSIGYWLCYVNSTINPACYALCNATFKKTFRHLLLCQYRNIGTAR
The assay can be described thus: Functional mobilization of intracellular calcium (FLIPR, Fluo-3), M4-CHO cells. Format: cell-based. The conditions noted are these: for Emax: 100% efficacy is the maximum response obtained with the Carbachol control, read-out: M4 Efficacy. The method in brief:
(§1)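 Intracellular calcium was tracked by fluorescence (488/540 nm) over 60 sec after compound addition to dye-loaded CHO cells expressing the receptor. Inhibitory activity used a 15 min pre-incubation before carbachol at the subtype EC80.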

Assay [2] deals with T2, M1 muscarinic receptor (Homo sapiens, UniProt P11229).
T2 construct: expressed in transfected cells; host or cells: CHO cells (M1-CHO, under zeocin and G418 selection)
T2 sequence (P11229 1-460): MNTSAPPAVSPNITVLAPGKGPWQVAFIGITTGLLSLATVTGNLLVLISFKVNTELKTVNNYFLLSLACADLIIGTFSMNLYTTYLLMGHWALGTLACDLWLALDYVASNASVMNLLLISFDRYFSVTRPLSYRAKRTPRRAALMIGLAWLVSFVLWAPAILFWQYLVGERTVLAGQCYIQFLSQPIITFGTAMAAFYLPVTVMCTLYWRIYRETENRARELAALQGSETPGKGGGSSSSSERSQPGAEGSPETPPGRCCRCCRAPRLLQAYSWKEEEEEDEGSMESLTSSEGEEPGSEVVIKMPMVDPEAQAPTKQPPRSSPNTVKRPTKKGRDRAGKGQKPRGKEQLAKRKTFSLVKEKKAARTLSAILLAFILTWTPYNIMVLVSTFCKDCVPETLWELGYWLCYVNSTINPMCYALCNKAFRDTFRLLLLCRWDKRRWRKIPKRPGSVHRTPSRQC
Description: Functional mobilization of intracellular calcium (FLIPR, Fluo-3), M1-CHO cells. In kind it is cell-based. The conditions noted are these: for Emax: 100% efficacy is the maximum response obtained with the Carbachol control, read-out: M1 Efficacy. The method in brief:
as §1

The mark [3] stands for this setting: compound nos. 1-454, M4-CHO cells, calcium mobilization.
[4] abbreviates: compound nos. 1-454, M1-CHO cells, calcium mobilization.

The structures appear in SMILES notation. Where two headings read alike, the source gives them in different places.

Consider `CCOC(=O)N1CCC(N2CCC3(CC2)CN(C(C)=O)c2ccc(C)cc23)CC1` [compound 92], for which the values for the Emax in assay [1] (compound nos. 1-454) and in assay [2] (compound nos. 1-454) were < 55% and 65 to 85%, respectively. Moreover, in assay [1] (setting [3]), the “M4 Activity” value was “++ (activity was measured to be between 0.1 μM and 4.0 μM)”. Further, the “M1 Activity” value in assay [2] (setting [4]) is “+++ (activity was measured to be less than or equal to 0.7 μM)”.

For the molecule `CCOC(=O)N1C2CCC1CC(N1CCC3(CC1)CN(C(=O)OC)c1ccc(F)cc13)C2` (centres unmarked) [compound 167], the Emax was > 70% in assay [1] (compound nos. 1-454) and 65 to 85% in assay [2] (compound nos. 1-454). The “M4 Activity” value in assay [1] (setting [3]) is “++ (activity was measured to be between 0.1 μM and 4.0 μM)”. In assay [2] (setting [4]), the “M1 Activity” value is recorded as “+++ (activity was measured to be less than or equal to 0.7 μM)”.

For `CCOC(=O)N1C2CCC1CC(N1CCC3(CC1)CN(S(=O)(=O)c1ccc(F)cc1)c1ccc(F)cc13)C2` (centres unmarked) [compound 40], the results for the Emax in assay [1] (compound nos. 1-454) and in assay [2] (compound nos. 1-454) were > 70% and 65 to 85%, respectively. The “M4 Activity” value in assay [1] (setting [3]) was “++ (activity was measured to be between 0.1 μM and 4.0 μM)”. Also, the “M1 Activity” value in assay [2] (setting [4]) is “+++ (activity was measured to be less than or equal to 0.7 μM)”.

Regarding `Clc1ccc2c(c1)C1(CCN(C3CC4CCC3C4)CC1)CN2` (centres unmarked) [compound 224], the Emax in assay [1] (compound nos. 1-454) is < 55%; in assay [2] (compound nos. 1-454), 65 to 85%. For the same molecule, in assay [1] (setting [3]), the “M4 Activity” value is given as “+ (activity was measured to be greater than or equal to 4.0 μM)”. Moreover, the “M1 Activity” value in assay [2] (setting [4]) is listed as “+ (activity was measured to be greater than or equal to 3.0 μM)”.

Turning to `CCOC(=O)N1CCC(N2CCC3(CC2)CN(C(=O)c2ccc(F)cc2)c2ccc(F)cc23)CC1` [compound 77], the Emax in assay [1] (compound nos. 1-454) is < 55%; in assay [2] (compound nos. 1-454), 65 to 85%. The “M4 Activity” value in assay [1] (setting [3]) is “++ (activity was measured to be between 0.1 μM and 4.0 μM)”. In addition, in assay [2] (setting [4]), the “M1 Activity” value is listed as “+++ (activity was measured to be less than or equal to 0.7 μM)”.

Turning to `CCNC(=O)N1CC2(CCN(C3CC4CCC(C3)N4C(=O)OCC)CC2)c2cc(F)ccc21` (centres unmarked) [compound 255], the Emax is < 55% in assay [1] (compound nos. 1-454) and < 65% in assay [2] (compound nos. 1-454). In assay [1] (setting [3]), the “M4 Activity” value is on record as “+ (activity was measured to be greater than or equal to 4.0 μM)”. Also, the “M1 Activity” value in assay [2] (setting [4]) is “+ (activity was measured to be greater than or equal to 3.0 μM)”.

For `Fc1ccc2c(c1)C1(CCN(CC3CCCCC3)CC1)CN2` [compound 239], the Emax was 55 to 70% in assay [1] (compound nos. 1-454) and 65 to 85% in assay [2] (compound nos. 1-454). In addition, the “M4 Activity” value in assay [1] (setting [3]) is recorded as “+ (activity was measured to be greater than or equal to 4.0 μM)”. Further, the “M1 Activity” value in assay [2] (setting [4]) is listed as “+ (activity was measured to be greater than or equal to 3.0 μM)”.

Turning to `CC(=O)N[C@H]1CC2(CCN(C3CCC[C@@H](C)C3)CC2)c2ccccc21` (some centres unmarked) [compound 358], the Emax lay within 55 to 70% in assay [1] (compound nos. 1-454) and 65 to 85% in assay [2] (compound nos. 1-454). Besides, in assay [1] (setting [3]), the “M4 Activity” value was “++ (activity was measured to be between 0.1 μM and 4.0 μM)”. In addition, the “M1 Activity” value in assay [2] (setting [4]) is “+++ (activity was measured to be less than or equal to 0.7 μM)”.

As to `CCCOC(=O)N1C2CCC1CC(N1CCC3(CC1)CN(S(C)(=O)=O)c1ccc(F)cc13)C2` (centres unmarked) [compound 294], the Emax was 55 to 70% in assay [1] (compound nos. 1-454) and > 85% in assay [2] (compound nos. 1-454). In addition, in assay [1] (setting [3]), the “M4 Activity” value is “++ (activity was measured to be between 0.1 μM and 4.0 μM)”. Further, the “M1 Activity” value in assay [2] (setting [4]) was “++ (activity was measured to be between 0.7 μM and 3.0 μM)”.

Take `Cc1ccc(N2CCC(N3CCC4(CC3)CN(C(=O)N(C)C)c3ccc(F)cc34)CC2)nn1` [compound 462]: the Emax in assay [1] (compound nos. 455-509) is < 25%; in assay [2] (compound nos. 455-509) it was 25 to 100%. Moreover, in assay [1] (compounds 455-509), the “M4 Activity” value is “++ (activity was measured to be between 2.0 μM and 5.0 μM)”. Besides, the “M1 Activity” value in assay [2] (compounds 455-509) was “+ (activity was measured to be greater than or equal to 5.0 μM)”.

With `C1=C[C@H]2C[C@H]1C[C@@H]2CN1CCC2(CCc3ccccc32)CC1` [compound 263], the values for the Emax in assay [1] (compound nos. 1-454) and in assay [2] (compound nos. 1-454) were < 55% and < 65%, respectively. Moreover, the “M4 Activity” value in assay [1] (setting [3]) is recorded as “+++ (activity was measured to be less than or equal to 0.1 μM)”. Also, in assay [2] (setting [4]), the “M1 Activity” value is listed as “+++ (activity was measured to be less than or equal to 0.7 μM)”.
